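Dose response: 5 concentrations. Exposure: 48 h. Format: 96-well plates. Endpoint: linear interpolation; highest concentration if not reached. The concentration for 50% growth inhibition is given as GI50. TGI marks complete inhibition of growth.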
Key:
Test in all cases: NCI anticancer screen, dose series, 48 h
[1] = test system: MDA-MB-468 breast
[2] = test system: 786-0 renal
[3] = test system: A498 renal
[4] = test system: A549 NSCLC
[5] = test system: ACHN renal
[6] = test system: BT-549 breast
[7] = test system: CAKI-1 renal
[8] = test system: CCRF-CEM leukemia
[9] = test system: COLO 205 colon
[10] = test system: DU-145 prostate
[11] = test system: EKVX NSCLC
[12] = test system: HCC-2998 colon
[13] = test system: HCT-116 colon
[14] = test system: HCT-15 colon
[15] = test system: HL-60(TB) leukemia
[16] = test system: HOP-62 NSCLC
[17] = test system: HOP-92 NSCLC
[18] = test system: HS 578T breast
[19] = test system: HT29 colon
[20] = test system: IGROV1 ovarian
[21] = test system: K-562 leukemia
[22] = test system: KM12 colon
[23] = test system: LOX IMVI melanoma
[24] = test system: M14 melanoma
[25] = test system: MALME-3M melanoma
[26] = test system: MCF7 breast
[27] = test system: MDA-MB-231 breast
[28] = test system: MDA-MB-435
[29] = test system: MOLT-4 leukemia
[30] = test system: NCI-H226 lung
[31] = test system: NCI-H23 lung
[32] = test system: NCI-H460 lung
[33] = test system: NCI-H522 lung
[34] = test system: NCI/ADR-RES ovarian
[35] = test system: OVCAR-3 ovarian
[36] = test system: OVCAR-4 ovarian
[37] = test system: OVCAR-5 ovarian
[38] = test system: OVCAR-8 ovarian
[39] = test system: PC-3 prostate
[40] = test system: RPMI-8226 leukemia
[41] = test system: RXF 393 renal
[42] = test system: SF-268 CNS
[43] = test system: SF-295 CNS
[44] = test system: SF-539 CNS
[45] = test system: SK-MEL-2 melanoma
[46] = test system: SK-MEL-28 melanoma
[47] = test system: SK-MEL-5 melanoma
[48] = test system: SK-OV-3 ovarian
[49] = test system: SN12C renal
[50] = test system: SNB-19 CNS
[51] = test system: SNB-75 CNS
[52] = test system: SW-620 colon
[53] = test system: T-47D breast
[54] = test system: TK-10 renal
[55] = test system: U251 CNS
[56] = test system: UACC-257 melanoma
[57] = test system: UACC-62 melanoma
[58] = test system: UO-31 renal

Compound: COc1ccc(-c2cc(/C=C3\C(=O)Nc4ccc(Cl)cc43)[nH]n2)cc1
- GI50 [1]: 3.6 µM
- TGI [1]: 13.5 µM

Compound: Cn1c(=O)c(Oc2ccccc2F)cc2cnc(NC3CCOCC3)nc21
- GI50 [1]: > 25 µM
- TGI [1]: > 25 µM

Compound: CCCCCCCCCCN(CCCCCCCCCC)CC(=O)c1ccc2cc(Br)c3ccccc3c2c1
- GI50 [1]: 1.7 µM
- TGI [1]: 3.14 µM

Compound: N#Cc1cnc2cc(OC[C@@H](O)CO)c(NC(=O)CC3CSSC3)cc2c1Nc1ccc(OCc2cccc(F)c2)c(Cl)c1
- GI50 [1]: 0.0698 µM
- TGI [1]: 0.155 µM

Compound: Clc1ccc2[nH]cc(-c3nc(-c4c[nH]c5ncccc45)cs3)c2c1
- GI50 [1]: 2.62 µM
- TGI [1]: 9.41 µM

Compound: C=C1C(=O)O[C@H]2[C@H]1CC/C(COC(=O)NCc1ccc(Cn3c(=O)sn(CCCCl)c3=O)cc1)=C\CC[C@@]1(C)O[C@@H]21
- GI50 [1]: 1.53 µM
- TGI [1]: 4.33 µM

Compound: NC(=O)c1cc(Br)cc(C2CCCCC2)c1O
- GI50 [1]: 13.8 µM
- TGI [1]: 29.2 µM

Compound: COC1CC2C=C(C)/C=C/C=C/C(=O)NC(c3ccccc3)C/C=C/CCC(O)CC(=O)C2=C1O (centres undefined)
- GI50 [1]: 0.283 µM
- TGI [1]: 1.24 µM

Compound: COc1cc(/C=C\[N+](=O)[O-])ccc1OCc1ccccc1
- GI50 [1]: 1.47 µM
- TGI [1]: 3.26 µM

Compound: O=c1nc(Nc2cccc(Cl)c2)oc2cc(Cl)oc(=O)c12
- GI50 [1]: 2.44 µM
- TGI [1]: 6.75 µM

Compound: CC(=O)[C@@H]1CCC=C2CC[C@]3(C)[C@@H](CC[C@@H]4[C@@]5(C)CCCNC(C)(C)[C@@H]5CC[C@]43C)[C@H]21
- GI50 [1]: 1.78 µM
- TGI [1]: 3.43 µM

Compound: COCCOC(=O)NC(=O)Nc1ccc(/C(=N/O)c2ccc(Cl)cc2)cc1
- GI50 [1]: 0.0813 µM
- TGI [1]: 0.616 µM

Compound: CCN1C(=S)N(CC)C2C1NC(=S)N2/N=C/C=C/c1ccccc1 (centres undefined)
- GI50 [1]: 0.458 µM
- TGI [1]: 4.19 µM

Compound: ClC(Cl)c1nc(-c2cccnc2)n2nc(-c3ccccc3)cc2n1
- GI50 [1]: 0.247 µM
- TGI [1]: 0.793 µM

Compound: COC(=O)c1c2c(c(C)[n+]([O-])c1C)C(=O)C=C(NCc1ccc(F)c(F)c1)C2=O
- GI50 [1]: 0.242 µM
- TGI [1]: 0.705 µM

Compound: O=C(c1ccc2ncc(-c3nc(NC4CC4)ncc3F)n2c1)N1CCOCC1
- GI50 [1]: 1.79 µM
- TGI [1]: 4.34 µM

Compound: COc1ccc2c(Nc3ccc(NS(C)(=O)=O)cc3)c3ccccc3nc2c1
- GI50 [1]: 0.414 µM
- TGI [1]: 1.74 µM

Compound: COc1ccc(/C=C/c2nc(NCCCN(C)C)c3ccccc3n2)cc1
- GI50 [1]: 1.31 µM
- TGI [1]: 2.64 µM

Compound: CC1=C[C@H]2c3c(c(O)c(O)c4oc5ccccc5c(=O)c34)[C@H](c3cc(O)c(O)c4oc5ccccc5c(=O)c34)[C@H]2C(C)(C)C1
- GI50 [1]: 2.02 µM
- TGI [1]: 6.04 µM

Compound: CCOC(=O)c1[nH]c(-c2ccc(Cl)cc2)cc1-c1cccnc1
- GI50 [1]: 0.493 µM
- TGI [1]: 4.33 µM

Compound: CN(C)CCCN1c2nc3ccccc3cc2Sc2cc3ccccc3nc21
- GI50 [1]: 1.65 µM
- TGI [1]: 4.44 µM

Compound: CCOC(=O)C(=Cc1ccccc1[N+](=O)[O-])C(=O)OCC
- GI50 [1]: 1.53 µM
- TGI [1]: 4.68 µM

Compound: Cc1cccc(-c2nc(Nc3ccc(C)c(S(N)(=O)=O)c3)c3ccccc3n2)c1
- GI50 [2]: 5.68 µM
- TGI [2]: 17.8 µM
- GI50 [3]: 8.25 µM
- TGI [3]: 25.8 µM
- GI50 [4]: 6.51 µM
- TGI [4]: 32.8 µM
- GI50 [5]: 4.8 µM
- TGI [5]: 21 µM
- GI50 [6]: 15.8 µM
- TGI [6]: 63.5 µM
- GI50 [7]: 5.78 µM
- TGI [7]: 21.8 µM
- GI50 [8]: 4.11 µM
- TGI [8]: 25.8 µM
- GI50 [9]: 7.07 µM
- TGI [9]: 19.8 µM
- GI50 [10]: 13.1 µM
- TGI [10]: 69.2 µM
- GI50 [11]: 6.18 µM
- TGI [11]: 24.1 µM
- GI50 [12]: 3.1 µM
- TGI [12]: 10.8 µM
- GI50 [13]: 5.84 µM
- TGI [13]: 19.6 µM
- GI50 [14]: 3.07 µM
- TGI [14]: 10.8 µM
- GI50 [15]: 4.67 µM
- TGI [15]: 61.5 µM
- GI50 [16]: 11 µM
- TGI [16]: 26.6 µM
- GI50 [17]: 6.46 µM
- TGI [17]: 27.2 µM
- GI50 [18]: 10.4 µM
- TGI [18]: 61.1 µM
- GI50 [19]: 4.67 µM
- TGI [19]: 18.8 µM
- GI50 [20]: 10.3 µM
- TGI [20]: 32.7 µM
- GI50 [21]: 3.47 µM
- TGI [21]: 19 µM
- GI50 [22]: 3.32 µM
- TGI [22]: > 100 µM
- GI50 [23]: 3.31 µM
- TGI [23]: 12.5 µM
- GI50 [24]: 9.55 µM
- TGI [24]: 21.3 µM
- GI50 [25]: 13.9 µM
- TGI [25]: 32.1 µM
- GI50 [26]: 3.16 µM
- TGI [26]: 12.9 µM
- GI50 [27]: 4.04 µM
- TGI [27]: 17.5 µM
- GI50 [28]: 10.5 µM
- TGI [28]: 67.3 µM
- GI50 [1]: 4.07 µM
- TGI [1]: 16.5 µM
- GI50 [29]: 3.73 µM
- TGI [29]: 33.8 µM
- GI50 [30]: 11.6 µM
- TGI [30]: 35.1 µM
- GI50 [31]: 13.3 µM
- TGI [31]: 33.5 µM
- GI50 [32]: 3.94 µM
- TGI [32]: 25 µM
- GI50 [33]: 2.72 µM
- TGI [33]: 7.93 µM
- GI50 [34]: 5.6 µM
- TGI [34]: 35.9 µM
- GI50 [35]: 9.36 µM
- TGI [35]: > 100 µM
- GI50 [36]: 8.5 µM
- TGI [36]: > 100 µM
- GI50 [37]: 12.4 µM
- TGI [37]: 27.4 µM
- GI50 [38]: 9.17 µM
- TGI [38]: 43.4 µM
- GI50 [39]: 4.09 µM
- TGI [39]: 55.4 µM
- GI50 [40]: 4.38 µM
- TGI [40]: 35 µM
- GI50 [41]: 3.3 µM
- TGI [41]: 11 µM
- GI50 [42]: 11.8 µM
- TGI [42]: > 100 µM
- GI50 [43]: 2.61 µM
- TGI [43]: 8.28 µM
- GI50 [44]: 7.78 µM
- TGI [44]: 27 µM
- GI50 [45]: 11.4 µM
- TGI [45]: 32.1 µM
- GI50 [46]: 11.4 µM
- TGI [46]: 28.8 µM
- GI50 [47]: 11 µM
- TGI [47]: 24.7 µM
- GI50 [48]: 17.6 µM
- TGI [48]: 47.8 µM
- GI50 [49]: 11.5 µM
- TGI [49]: 28.2 µM
- GI50 [50]: 10.5 µM
- TGI [50]: 53 µM
- GI50 [51]: 13.1 µM
- TGI [51]: 52 µM
- GI50 [52]: 6.44 µM
- TGI [52]: 24 µM
- GI50 [53]: 3.61 µM
- TGI [53]: 16.7 µM
- GI50 [54]: 15.3 µM
- TGI [54]: 41.9 µM
- GI50 [55]: 8.08 µM
- TGI [55]: 34.2 µM
- GI50 [56]: 18.3 µM
- TGI [56]: 51.4 µM
- GI50 [57]: 13.6 µM
- TGI [57]: 30.2 µM
- GI50 [58]: 5.57 µM
- TGI [58]: 27.1 µM

Compound: CC(C)c1ccc(C(=O)Nc2sc3c(c2C#N)CCC(=O)C3)cc1
- GI50 [1]: 0.389 µM
- TGI [1]: 2.4 µM

Compound: Nc1nnc2cc(Cl)ccc2n1
- GI50 [1]: > 100 µM
- TGI [1]: > 100 µM

Compound: Cc1nc2sc(C(=O)Nc3cccc4ccccc34)c(N)c2cc1C(=O)c1ccccc1
- GI50 [1]: 1.66 µM
- TGI [1]: > 50 µM

Compound: NC1CCN(c2nc(Nc3cccc(C(F)(F)F)c3)c3c(=O)[nH]ccc3n2)CC1
- GI50 [1]: 1.49 µM
- TGI [1]: 2.98 µM

Compound: NNc1cccc(/C=C/c2ccccc2)cc1=O
- GI50 [1]: 8.46 µM
- TGI [1]: 90.7 µM

Compound: CC/C=C\C[C@H](O)C/C=C1/C(=O)C=C[C@@H]1C/C=C\CCCC(=O)N(C)C
- GI50 [1]: 1.43 µM
- TGI [1]: 3.38 µM

Compound: OCC1OC(n2ccc3c(NO)ncnc32)C(O)C1O (centres undefined)
- GI50 [1]: 0.122 µM
- TGI [1]: 0.777 µM

Compound: O=[N+]([O-])c1ccc(N/N=C/c2c(O)ccc3ccccc23)nc1
- GI50 [1]: 4.47 µM
- TGI [1]: 49.4 µM

Compound: O=C(Nc1ccc(F)cc1)c1c(NC(=O)C(F)(F)F)sc2c1CCCCC2
- GI50 [1]: 1.04 µM
- TGI [1]: 4.85 µM

Compound: N=C(N=C(N)N)N1CCN(c2ccncc2)CC1
- GI50 [1]: > 1000 µM
- TGI [1]: > 1000 µM

Compound: Cc1cc(CNC(=O)OCc2ccccc2)c(C)c2c1Oc1ccccc1O2
- GI50 [1]: 95.6 µM
- TGI [1]: > 100 µM

Compound: Cc1cc(C)c(C[N+](C)(C)C)c(C)c1C
- GI50 [1]: 0.495 µM
- TGI [1]: 9.2 µM
